Results: US10501516B2, “Peptide compound” (TAKEDA PHARMACEUTICAL COMPANY LIMITED, priority 2016, dated 2019)
Square brackets hold non-standard residues; d marks the D form. Side chains are listed from the residue outwards. Peptide text beside a SMILES is read from it. * marks the point of attachment. C18 diacid = O=C(O)CCCCCCCCCCCCCCCCC(=O)*; NMeY = CN[C@@H](Cc1ccc(O)cc1)C(=O)O; Palmitoyl = CCCCCCCCCCCCCCCC(=O)*; αMeF = C[C@](N)(Cc1ccccc1)C(=O)O; Iva = CC[C@](C)(N)C(=O)O; Aib = CC(C)(N)C(=O)O

system: male C57BL/6J mouse; assay: Evaluation of feeding suppressive action in mice; assay type: in vivo; details: 30 nmol/kg s.c. once a day for 3 days; 3-days cumulative food consumption vs solvent control
Description: The feeding suppressive activity of a test compound was examined by the method described below.
The test compound was dissolved at a concentration of 30 or 100 nmol/2 mL in a solvent (10% DMSO-containing physiological saline). The test compound solution was subcutaneously administered at a dose of 2 mL/kg to the back of each male C57BL/6J mouse at 8-9 weeks of age (20-26° C., allowed to take food and water ad libitum; raised in the 12-hour bright-12-hour dark cycle). The administration was performed once a day for 3 days. After the administration, the mouse was individually raised in a rearing cage, and given previously weighed food; food consumption for 3 days after the start of administration was measured. The food consumption was calculated by subtracting the amount of remaining food from the weight of the food given on the day of the start of administration. When the food consumption of a control group receiving administration of the solvent alone was regarded as a suppression rate of 0%, the feeding suppressive activity of each test compound was evaluated on the basis of 3-days cumulative food consumption after the start of administration. The food intake suppression rate (%) of the test compound was defined as (Food consumption of the control group−Food consumption of the test compound-administered group)/Food consumption of the control group×100.

Going from `CCCCCCCCCCCCCCCC(=O)NCC(=O)NCC(=O)NCC(=O)NCC(=O)NCCCC[C@H](NC(=O)[C@H](CC(=O)O)NC(=O)[C@H](CO)NC(=O)[C@@H](NC(=O)[C@](C)(Cc1ccccc1)NC(=O)[C@@H](NC(=O)CNC(=O)[C@H](CCC(=O)O)NC(=O)C(C)(C)NC(=O)[C@@H](N)Cc1ccc(O)cc1)[C@@H](C)O)[C@@H](C)O)C(=O)NC(C)(C)C(=O)N[C@H](C(=O)NC(C)(C)C(=O)N[C@@H](CC(C)C)C(=O)N[C@@H](CCC(=O)O)C(=O)N[C@@H](CCCCN)C(=O)N[C@@H](CCC(N)=O)C(=O)N[C@@H](CCCNC(=N)N)C(=O)N[C@@H](CCC(N)=O)C(=O)N[C@@](C)(CC)C(=O)N[C@@H](CCC(=O)O)C(=O)N[C@@H](Cc1ccccc1)C(=O)N[C@H](C(=O)N[C@@H](CCCNC(=N)N)C(=O)N[C@@H](Cc1c[nH]cn1)C(=O)N[C@@H](CC(C)C)C(=O)N[C@@H](CC(C)C)C(=O)N[C@@H](CC(N)=O)C(=O)N[C@@H](CCCCN)C(=O)NC(C)(C)C(=O)N[C@H](C(=O)N[C@@H](CCCNC(=N)N)C(=O)N[C@@H](CCC(N)=O)C(=O)N[C@@H](CCCNC(=N)N)C(=O)N[C@@H](Cc1ccc(O)cc1)C(N)=O)[C@@H](C)O)C(C)C)[C@@H](C)CC` [Example 31] (H-Y[Aib]EGT[αMeF]TSDK([Gly-Gly-Gly-Gly-Palmitoyl])[Aib]I[Aib]LEKQRQ[Iva]EFVRHLLNK[Aib]TRQRY-NH2) to `CC[C@H](C)[C@H](NC(=O)C(C)(C)NC(=O)[C@H](CCCCNC(=O)CNC(=O)CNC(=O)CNC(=O)CNC(=O)CCCCCCCCCCCCCCCCC(=O)O)NC(=O)[C@H](CC(=O)O)NC(=O)[C@H](CO)NC(=O)[C@@H](NC(=O)[C@](C)(Cc1ccccc1)NC(=O)[C@@H](NC(=O)CNC(=O)[C@H](CCC(=O)O)NC(=O)C(C)(C)NC(=O)[C@@H](N)Cc1ccc(O)cc1)[C@@H](C)O)[C@@H](C)O)C(=O)NC(C)(C)C(=O)N[C@@H](CC(C)C)C(=O)N[C@@H](CCC(=O)O)C(=O)N[C@@H](CCCCN)C(=O)N[C@@H](CCC(N)=O)C(=O)N[C@@H](CCCNC(=N)N)C(=O)N[C@@H](CCC(N)=O)C(=O)N[C@@](C)(CC)C(=O)N[C@@H](CCC(=O)O)C(=O)N[C@@H](Cc1ccccc1)C(=O)N[C@H](C(=O)N[C@@H](CCCNC(=N)N)C(=O)N[C@@H](Cc1c[nH]cn1)C(=O)N[C@@H](CC(C)C)C(=O)N[C@@H](CC(C)C)C(=O)N[C@@H](CC(N)=O)C(=O)N[C@@H](CCCCN)C(=O)NC(C)(C)C(=O)N[C@H](C(=O)N[C@@H](CCCNC(=N)N)C(=O)N[C@@H](CCC(N)=O)C(=O)N[C@@H](CCCNC(=N)N)C(=O)N[C@@H](Cc1ccc(O)cc1)C(N)=O)[C@@H](C)O)C(C)C` [Example 32] (H-Y[Aib]EGT[αMeF]TSDK([Gly-Gly-Gly-Gly-C18 diacid])[Aib]I[Aib]LEKQRQ[Iva]EFVRHLLNK[Aib]TRQRY-NH2), the “Rate of feeding suppression (%)” value rises from −56.8% to −51.0%.

First: CCCCCCCCCCCCCCCC(=O)NCC(=O)NCC(=O)NCC(=O)NCC(=O)NCCCC[C@H](NC(=O)[C@H](CC(=O)O)NC(=O)[C@H](CO)NC(=O)[C@@H](NC(=O)[C@](C)(Cc1ccccc1)NC(=O)[C@@H](NC(=O)CNC(=O)[C@H](CCC(=O)O)NC(=O)C(C)(C)NC(=O)[C@@H](N)Cc1ccc(O)cc1)[C@@H](C)O)[C@@H](C)O)C(=O)N[C@@H](C)C(=O)N[C@H](C(=O)NC(C)(C)C(=O)N[C@@H](CC(C)C)C(=O)N[C@@H](CCC(=O)O)C(=O)N[C@@H](CCCCN)C(=O)N[C@@H](CCC(N)=O)C(=O)N[C@@H](CCCNC(=N)N)C(=O)N[C@@H](CCC(N)=O)C(=O)N[C@@](C)(CC)C(=O)N[C@@H](CCC(=O)O)C(=O)N[C@@H](Cc1ccccc1)C(=O)N[C@H](C(=O)N[C@@H](CCCNC(=N)N)C(=O)N[C@@H](Cc1c[nH]cn1)C(=O)N[C@@H](CC(C)C)C(=O)N[C@@H](CC(C)C)C(=O)N[C@@H](CC(N)=O)C(=O)N[C@@H](CCCCN)C(=O)NC(C)(C)C(=O)N[C@H](C(=O)N[C@@H](CCCNC(=N)N)C(=O)N[C@@H](CCC(N)=O)C(=O)N[C@@H](CCCNC(=N)N)C(=O)N[C@@H](Cc1ccc(O)cc1)C(N)=O)[C@@H](C)O)C(C)C)[C@@H](C)CC [Example 35] (H-Y[Aib]EGT[αMeF]TSDK([Gly-Gly-Gly-Gly-Palmitoyl])AI[Aib]LEKQRQ[Iva]EFVRHLLNK[Aib]TRQRY-NH2)
Second: CCCCCCCCCCCCCCCC(=O)NCC(=O)NCC(=O)NCC(=O)NCC(=O)NCCCC[C@H](NC(=O)[C@H](CC(=O)O)NC(=O)[C@H](CO)NC(=O)[C@@H](NC(=O)[C@](C)(Cc1ccccc1)NC(=O)[C@@H](NC(=O)CNC(=O)[C@H](CCC(=O)O)NC(=O)C(C)(C)NC(=O)[C@H](Cc1ccc(O)cc1)NC)[C@@H](C)O)[C@@H](C)O)C(=O)N[C@@H](C)C(=O)N[C@H](C(=O)NC(C)(C)C(=O)N[C@@H](CC(C)C)C(=O)N[C@@H](CCC(=O)O)C(=O)N[C@@H](CCCCN)C(=O)N[C@@H](CCC(N)=O)C(=O)N[C@@H](CCCNC(=N)N)C(=O)N[C@@H](CCC(N)=O)C(=O)N[C@@](C)(CC)C(=O)N[C@@H](CCC(=O)O)C(=O)N[C@@H](Cc1ccccc1)C(=O)N[C@H](C(=O)N[C@@H](CCCNC(=N)N)C(=O)N[C@@H](Cc1c[nH]cn1)C(=O)N[C@@H](CC(C)C)C(=O)N[C@@H](CC(C)C)C(=O)N[C@@H](CC(N)=O)C(=O)N[C@@H](CCCCN)C(=O)NC(C)(C)C(=O)N[C@H](C(=O)N[C@@H](CCCNC(=N)N)C(=O)N[C@@H](CCC(N)=O)C(=O)N[C@@H](CCCNC(=N)N)C(=O)N[C@@H](Cc1ccc(O)cc1)C(N)=O)[C@@H](C)O)C(C)C)[C@@H](C)CC [Example 37] (H-[NMeY][Aib]EGT[αMeF]TSDK([Gly-Gly-Gly-Gly-Palmitoyl])AI[Aib]LEKQRQ[Iva]EFVRHLLNK[Aib]TRQRY-NH2)
The “Rate of feeding suppression (%)” value of the first is higher: −52.6% for the first, −54.9% for the second.
